Consider four compounds from publication PMC7827406, “Structure–Activity Relationship (SAR) Study of Spautin-1 to Entail the Discovery of Novel NEK4 Inhibitors” (International Journal of Molecular Sciences, 2021).

Like-named read-outs stand apart in the source and are kept apart here.

Holding throughout (test): biochemical
What all share (parameters): Eurofins KinaseProfiler full panel at Km ATP, residual kinase activity (%) relative to DMSO

One assay concerns the target JAK2(h) (Homo sapiens, UniProt O60674). The procedure, abridged:
(§1)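 Two 10 µM single-concentration screens were run: a competition-binding screen, in which DNA-tagged kinase bound to immobilized ligands was quantified by qPCR, and a radiometric activity panel at Km ATP. Each is expressed as residual kinase activity (%).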

A further assay has as its target T1, ROCK-I(h) (Homo sapiens, UniProt Q13464).
T1 construct: gene ROCK1
The procedure, abridged:
as §1

A further assay has as its target T2, ALK2(h) (Homo sapiens, UniProt Q04771).
T2 construct: gene ACVR1
T2 sequence (Q04771 1-509): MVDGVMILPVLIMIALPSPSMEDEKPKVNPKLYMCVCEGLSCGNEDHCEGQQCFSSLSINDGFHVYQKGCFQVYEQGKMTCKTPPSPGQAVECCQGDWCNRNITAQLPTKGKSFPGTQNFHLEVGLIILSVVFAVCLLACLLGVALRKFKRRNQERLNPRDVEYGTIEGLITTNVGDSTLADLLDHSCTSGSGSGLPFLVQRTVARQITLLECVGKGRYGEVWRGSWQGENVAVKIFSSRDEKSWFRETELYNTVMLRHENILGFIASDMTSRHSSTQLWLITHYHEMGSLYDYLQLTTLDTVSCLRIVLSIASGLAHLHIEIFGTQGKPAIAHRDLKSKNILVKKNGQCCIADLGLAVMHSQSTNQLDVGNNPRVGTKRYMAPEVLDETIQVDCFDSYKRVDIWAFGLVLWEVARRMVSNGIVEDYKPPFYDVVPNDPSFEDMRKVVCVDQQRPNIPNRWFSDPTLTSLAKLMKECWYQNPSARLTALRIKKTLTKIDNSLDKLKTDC
The procedure, abridged:
as §1

The target of the next assay is T3, TGFBR1(h) (Homo sapiens, UniProt P36897).
T3 sequence (P36897 1-503): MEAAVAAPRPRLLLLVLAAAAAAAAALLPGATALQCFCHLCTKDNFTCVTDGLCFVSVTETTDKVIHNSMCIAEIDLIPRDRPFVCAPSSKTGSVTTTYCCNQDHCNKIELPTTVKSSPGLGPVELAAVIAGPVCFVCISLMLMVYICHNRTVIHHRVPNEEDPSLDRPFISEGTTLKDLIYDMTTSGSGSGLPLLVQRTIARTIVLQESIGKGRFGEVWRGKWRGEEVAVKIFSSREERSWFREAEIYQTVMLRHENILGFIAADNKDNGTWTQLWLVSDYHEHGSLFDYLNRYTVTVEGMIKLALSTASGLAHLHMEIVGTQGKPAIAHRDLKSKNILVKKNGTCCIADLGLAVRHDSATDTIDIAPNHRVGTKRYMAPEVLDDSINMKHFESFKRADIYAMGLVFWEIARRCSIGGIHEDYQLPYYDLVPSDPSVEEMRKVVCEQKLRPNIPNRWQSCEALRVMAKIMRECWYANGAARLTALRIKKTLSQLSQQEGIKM
The procedure, abridged:
as §1

A further assay deals with LRRK2(h) (Homo sapiens, UniProt Q5S007). The procedure, abridged: as §1
The next assay addresses T4, GSK3β(h) (Homo sapiens, UniProt P49841).
T4 construct: gene GSK3B
The procedure, abridged:
as §1

The mark [1] stands for this setting: read-out: Residual activity (%) Spautin-1 5aa.
[2] abbreviates: read-out: Residual activity (%) 5as.
Where [3] appears, read: read-out: Residual activity (%) 5at.
Where [4] appears, read: read-out: Residual activity (%) 5ay.

T4 sequence (P49841 whole entry): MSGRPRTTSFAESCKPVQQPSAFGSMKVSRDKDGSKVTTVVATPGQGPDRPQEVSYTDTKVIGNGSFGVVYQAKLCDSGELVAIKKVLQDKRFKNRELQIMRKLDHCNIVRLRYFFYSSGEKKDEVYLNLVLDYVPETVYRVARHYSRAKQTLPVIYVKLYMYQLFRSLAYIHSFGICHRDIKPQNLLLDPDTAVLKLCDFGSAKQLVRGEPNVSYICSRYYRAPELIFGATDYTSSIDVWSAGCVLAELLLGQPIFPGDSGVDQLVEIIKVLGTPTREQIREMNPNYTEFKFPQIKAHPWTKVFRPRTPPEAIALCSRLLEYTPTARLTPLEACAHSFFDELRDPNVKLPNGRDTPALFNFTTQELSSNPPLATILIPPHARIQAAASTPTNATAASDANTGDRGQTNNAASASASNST
Sequence of LRRK2(h) (Q5S007 whole entry): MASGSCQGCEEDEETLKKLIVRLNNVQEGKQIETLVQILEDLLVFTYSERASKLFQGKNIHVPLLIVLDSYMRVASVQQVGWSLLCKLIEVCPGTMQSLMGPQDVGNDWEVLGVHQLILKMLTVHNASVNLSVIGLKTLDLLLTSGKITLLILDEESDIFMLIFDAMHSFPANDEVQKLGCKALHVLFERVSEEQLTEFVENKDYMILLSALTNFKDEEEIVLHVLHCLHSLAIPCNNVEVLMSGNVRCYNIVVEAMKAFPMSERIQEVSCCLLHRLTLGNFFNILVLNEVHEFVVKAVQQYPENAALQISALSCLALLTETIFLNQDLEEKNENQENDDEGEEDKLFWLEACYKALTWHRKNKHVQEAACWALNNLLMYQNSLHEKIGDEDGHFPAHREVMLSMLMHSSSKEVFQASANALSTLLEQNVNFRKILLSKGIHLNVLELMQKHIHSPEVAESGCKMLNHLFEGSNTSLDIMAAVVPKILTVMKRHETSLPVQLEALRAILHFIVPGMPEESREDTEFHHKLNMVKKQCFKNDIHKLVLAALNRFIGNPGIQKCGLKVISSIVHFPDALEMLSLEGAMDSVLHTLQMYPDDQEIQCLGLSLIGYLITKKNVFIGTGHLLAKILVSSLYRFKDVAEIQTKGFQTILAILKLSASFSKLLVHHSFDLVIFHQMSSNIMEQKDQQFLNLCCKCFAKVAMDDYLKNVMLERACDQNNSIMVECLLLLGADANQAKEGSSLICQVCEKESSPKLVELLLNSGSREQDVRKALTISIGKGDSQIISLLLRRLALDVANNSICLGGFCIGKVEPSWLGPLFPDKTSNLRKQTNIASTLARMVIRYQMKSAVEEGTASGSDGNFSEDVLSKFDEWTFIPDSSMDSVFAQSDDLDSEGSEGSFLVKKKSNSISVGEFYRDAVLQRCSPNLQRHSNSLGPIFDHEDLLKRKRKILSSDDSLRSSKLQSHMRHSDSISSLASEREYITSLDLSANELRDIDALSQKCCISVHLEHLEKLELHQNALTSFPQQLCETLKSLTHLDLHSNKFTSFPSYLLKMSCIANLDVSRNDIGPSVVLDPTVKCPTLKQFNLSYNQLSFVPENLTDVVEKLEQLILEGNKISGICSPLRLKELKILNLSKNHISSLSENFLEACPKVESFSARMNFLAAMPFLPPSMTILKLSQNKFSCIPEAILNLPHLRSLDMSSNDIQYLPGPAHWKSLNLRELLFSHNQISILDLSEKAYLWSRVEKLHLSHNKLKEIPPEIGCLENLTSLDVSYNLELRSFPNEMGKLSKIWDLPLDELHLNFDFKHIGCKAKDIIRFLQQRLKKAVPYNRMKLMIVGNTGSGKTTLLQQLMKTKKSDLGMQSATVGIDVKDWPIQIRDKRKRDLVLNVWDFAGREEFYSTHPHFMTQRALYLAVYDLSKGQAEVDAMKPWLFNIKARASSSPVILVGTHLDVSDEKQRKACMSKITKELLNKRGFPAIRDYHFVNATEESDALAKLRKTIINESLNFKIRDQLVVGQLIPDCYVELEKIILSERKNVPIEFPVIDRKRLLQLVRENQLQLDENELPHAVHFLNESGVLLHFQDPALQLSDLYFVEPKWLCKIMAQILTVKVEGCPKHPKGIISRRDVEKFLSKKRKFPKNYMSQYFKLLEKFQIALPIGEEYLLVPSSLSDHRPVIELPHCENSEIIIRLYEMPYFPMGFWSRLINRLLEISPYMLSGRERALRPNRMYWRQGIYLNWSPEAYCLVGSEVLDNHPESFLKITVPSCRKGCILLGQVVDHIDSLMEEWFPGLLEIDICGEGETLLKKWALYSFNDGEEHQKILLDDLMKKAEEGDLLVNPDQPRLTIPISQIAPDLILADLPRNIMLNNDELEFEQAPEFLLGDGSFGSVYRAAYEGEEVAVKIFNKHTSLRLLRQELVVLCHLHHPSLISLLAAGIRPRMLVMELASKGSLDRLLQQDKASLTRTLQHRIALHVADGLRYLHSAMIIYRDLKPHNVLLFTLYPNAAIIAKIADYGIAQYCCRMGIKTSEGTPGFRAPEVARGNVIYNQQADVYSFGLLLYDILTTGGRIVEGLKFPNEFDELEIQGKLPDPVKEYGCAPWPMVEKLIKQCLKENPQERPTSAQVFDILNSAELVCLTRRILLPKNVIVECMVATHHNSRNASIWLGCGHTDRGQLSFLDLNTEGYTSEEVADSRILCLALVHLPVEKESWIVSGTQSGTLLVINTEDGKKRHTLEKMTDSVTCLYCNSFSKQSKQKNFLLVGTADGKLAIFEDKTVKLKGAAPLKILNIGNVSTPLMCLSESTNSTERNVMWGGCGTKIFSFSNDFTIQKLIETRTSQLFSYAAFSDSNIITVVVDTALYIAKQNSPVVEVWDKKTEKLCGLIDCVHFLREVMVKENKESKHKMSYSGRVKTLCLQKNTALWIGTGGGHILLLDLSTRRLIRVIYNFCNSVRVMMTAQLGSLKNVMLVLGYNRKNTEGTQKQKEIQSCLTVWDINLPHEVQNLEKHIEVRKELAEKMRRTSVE
T1 sequence (Q13464 whole entry): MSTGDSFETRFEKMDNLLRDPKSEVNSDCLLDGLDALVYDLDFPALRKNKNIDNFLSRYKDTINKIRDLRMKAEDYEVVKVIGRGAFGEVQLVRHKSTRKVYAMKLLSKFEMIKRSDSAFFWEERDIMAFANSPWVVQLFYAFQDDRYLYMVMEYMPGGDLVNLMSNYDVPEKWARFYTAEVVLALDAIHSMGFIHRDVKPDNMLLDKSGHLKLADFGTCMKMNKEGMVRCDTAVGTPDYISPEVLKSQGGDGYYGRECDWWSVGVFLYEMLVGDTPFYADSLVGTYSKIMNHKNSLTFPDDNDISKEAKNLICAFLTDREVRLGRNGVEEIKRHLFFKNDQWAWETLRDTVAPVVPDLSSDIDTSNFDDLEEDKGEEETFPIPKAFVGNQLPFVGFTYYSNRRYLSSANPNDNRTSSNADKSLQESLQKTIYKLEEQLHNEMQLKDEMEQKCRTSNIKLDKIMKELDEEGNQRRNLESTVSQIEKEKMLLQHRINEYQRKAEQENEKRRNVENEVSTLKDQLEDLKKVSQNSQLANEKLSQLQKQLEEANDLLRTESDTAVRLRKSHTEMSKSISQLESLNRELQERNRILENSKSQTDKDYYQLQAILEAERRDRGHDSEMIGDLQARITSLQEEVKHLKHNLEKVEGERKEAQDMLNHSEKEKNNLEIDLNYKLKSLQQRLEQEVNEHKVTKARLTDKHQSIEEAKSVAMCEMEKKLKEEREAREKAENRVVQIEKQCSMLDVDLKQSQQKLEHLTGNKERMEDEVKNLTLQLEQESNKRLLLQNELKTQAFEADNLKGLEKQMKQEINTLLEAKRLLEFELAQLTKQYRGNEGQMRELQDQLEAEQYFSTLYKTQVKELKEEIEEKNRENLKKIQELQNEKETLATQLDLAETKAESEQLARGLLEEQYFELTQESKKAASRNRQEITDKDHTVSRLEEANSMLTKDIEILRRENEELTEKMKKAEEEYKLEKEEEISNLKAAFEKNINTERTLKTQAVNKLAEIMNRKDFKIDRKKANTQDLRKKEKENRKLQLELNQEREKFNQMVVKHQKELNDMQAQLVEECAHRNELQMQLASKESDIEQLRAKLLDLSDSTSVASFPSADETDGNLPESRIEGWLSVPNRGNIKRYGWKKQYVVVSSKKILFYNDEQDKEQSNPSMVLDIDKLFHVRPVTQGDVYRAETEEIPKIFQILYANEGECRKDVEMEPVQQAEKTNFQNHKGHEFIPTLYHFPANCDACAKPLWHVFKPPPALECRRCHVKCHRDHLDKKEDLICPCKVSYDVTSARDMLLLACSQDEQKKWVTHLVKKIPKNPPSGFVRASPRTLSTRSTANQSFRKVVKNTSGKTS

Turning to `Fc1ccc(CNc2ncnc3ccc(F)cc23)cc1` [5aa, 6-Fluoro-N-(4-fluorobenzyl)-4-Quinazolinamine], the remaining activity at 10 µM at JAK2(h) (setting [1]) came out at 91%; on ROCK-I(h) (setting [1]), 91%; on ALK2(h) (setting [1]), 60%; on TGFBR1(h) (setting [1]) it was 87%; at LRRK2(h) (setting [1]) it was 91%; on GSK3β(h) (setting [1]), 85%.

Regarding `Fc1ccc(CCNc2ncnc3ccc(F)cc23)cc1` [5as, 6-Fluoro-N-[2-(4-Fluorophenyl)Ethyl]-4-Quinazolinamine], the remaining activity at 10 µM at JAK2(h) (setting [2]) was determined as 93%; on ROCK-I(h) (setting [2]), 98%; at ALK2(h) (setting [2]), 45%; on TGFBR1(h) (setting [2]) it was 97%; on LRRK2(h) (setting [2]), 91%; on GSK3β(h) (setting [2]) it was 91%.

Turning to `Fc1ccc2ncnc(NCCc3ccc(Cl)cc3)c2c1` [5at, N-[2-(4-Chlorophenyl)Ethyl]-6-Fluoro-4-Quinazolinamine], the remaining activity at 10 µM was 86% at JAK2(h) (setting [3]); 93% on ROCK-I(h) (setting [3]); 58% on ALK2(h) (setting [3]); 86% on TGFBR1(h) (setting [3]); 101% on LRRK2(h) (setting [3]); 97% at GSK3β(h) (setting [3]).

Turning to `COc1ccc2ncnc(Nc3cccc(F)c3)c2c1` [5ay, N-(3-Fluorophenyl)-6-Methoxy-4-Quinazolinamine], the remaining activity at 10 µM on JAK2(h) (setting [4]) was determined as 108%; at ROCK-I(h) (setting [4]) it was 96%; at ALK2(h) (setting [4]) it was 50%; at TGFBR1(h) (setting [4]), 94%; on LRRK2(h) (setting [4]), 44%; on GSK3β(h) (setting [4]), 76%.
